Test results taken from patent US11390621B2, “Chiral indole compounds and their use” (ARIAGEN, INC., priority 2019, dated 2022).
Several values for one entry are separate records, joined by “and”; a condition that tells them apart may be missing. Identical values can stand only once.

How the values were obtained:
Type in all cases: in vitro ADME
[1] = Hepatocyte intrinsic clearance assay (metabolic stability), rat hepatocytes; conditions: rat, cryopreserved hepatocytes, Rat Hepatocytes, 1 μM test compound
From the text: (§1) The liver is an important organ in the body for drug metabolism. This Example describes hepatocyte intrinsic clearance assays using both human and rat hepatocytes to evaluate the metabolic stability of the indole compounds disclosed herein. The parameters measured include t1/2 (half-life), CLint (intrinsic clearance), and EH (hepatic extraction ratio).
(§2) Testosterone (Lot FE111011-01) was obtained from Cerilliant (Round Rock, Tex.). 7-hydroxycoumarin (Lot 11631ED) was obtained from Sigma Aldrich (St. Louis, Mo.). Cryopreserved human hepatocytes pooled from ten donor males (X008001), cryopreserved male IRC/CD-1 mouse hepatocytes (M005052), INVITROGRO HI Medium (incubation), and INVITROGRO HT Medium (thawing) were obtained from Bioreclamation IVT (Baltimore, Md.). All solvents were obtained from commercial sources and used without further purification.
(§3) Each test compound was prepared as a 1 mM stock solution in DMSO. A 2 μM solution of test compound and positive controls were prepared in INVITROGRO HI Medium (incubation). These solutions were pre-warmed in a sterile incubator set to maintain 37° C., 5% CO2, and 98% humidity. Cryopreserved hepatocytes were prepared at a concentration of 2×10^6 living cells/mL in incubation media and pre-warmed in the incubator. The compound solutions and hepatocyte mixtures were then combined at a ratio of 1:1 (v:v). The final volume of the reaction mixture was 750 μL, containing 1 μM test compound (10 μM for 7-hydroxycoumarin) and […]. The reaction mixture was placed in the incubator on a plate shaker. After 0, 15, 30, 60, 90, and 120 minutes of incubation, 100 μL of reaction mixtures were removed from the incubation plate and mixed with 150 μL of ice-cold acetonitrile in a designated well of a 96-well crash plate. The 96-well crash plate was placed on ice for 15 min, and samples were centrifuged (3,600 RPM, 10 min, 4° C.) to precipitate protein. The supernatants were diluted 1:1 (v:v) with water containing 0.15 μM verapamil and/or 1 μM tolbutamide (internal standards for positive and negative modes, respectively) in a 96-well shallow injection plate. This plate was sealed for LC-MS analysis. All measurements were done in duplicate.
(§4) The residual compound remaining (% R) was determined from LC-MS peak areas by comparison to the zero time point. Metabolic half-life (t1/2) and intrinsic clearance (CLint) values were calculated from the slope of the plot of ln (% R) vs. time and the concentration of hepatocytes present in the incubation. Percent remaining at 60 minutes was calculated by plugging in the 60 minute value into the slope equation generated by the percent remaining time points.
(§5) In vivo hepatic clearance CLH was calculated using the well stirred liver model according to the following equation:
(§6) [formula] where QH is the total liver blood flow, fu is unbound fraction of the drug, and CL′int is defined as follows: CL′int=CLint×(10^6 cells/g of liver weight)×(g liver weight/kg of body weight). In the first approximation, used in this study, fu=1.
(§7) Hepatic extraction ratio EH was calculated using the following equation:
(§8) [formula] Corresponding physiological parameters used in calculations for all species are shown below in Table 3.

[2] = system: rat hepatocytes; assay: as above; conditions: for EH (hepatic extraction ratio): well stirred liver model, fu=1; for CLint lower than that of ARI-164 (fold): rat hepatocytes
From the text: as §1, §2, §3, §4, §5, §6, §7, §8

[3] = molecular target: T1, CYP1A2 (Homo sapiens, UniProt P05177); assay: CYP profiling: human liver microsomes with CYP1A2 inhibitor furafylline; parameters: % Compound Metabolized at 30 min, CYP1A2 Inhibitor: concentration or dose not given beside the values; conditions: HLMs; for % Inhibition Relative to Negative Control, 1A2: 30 min
T1 construct: from tissue; host or cells: human liver microsomes
T1 sequence (P05177 1-516): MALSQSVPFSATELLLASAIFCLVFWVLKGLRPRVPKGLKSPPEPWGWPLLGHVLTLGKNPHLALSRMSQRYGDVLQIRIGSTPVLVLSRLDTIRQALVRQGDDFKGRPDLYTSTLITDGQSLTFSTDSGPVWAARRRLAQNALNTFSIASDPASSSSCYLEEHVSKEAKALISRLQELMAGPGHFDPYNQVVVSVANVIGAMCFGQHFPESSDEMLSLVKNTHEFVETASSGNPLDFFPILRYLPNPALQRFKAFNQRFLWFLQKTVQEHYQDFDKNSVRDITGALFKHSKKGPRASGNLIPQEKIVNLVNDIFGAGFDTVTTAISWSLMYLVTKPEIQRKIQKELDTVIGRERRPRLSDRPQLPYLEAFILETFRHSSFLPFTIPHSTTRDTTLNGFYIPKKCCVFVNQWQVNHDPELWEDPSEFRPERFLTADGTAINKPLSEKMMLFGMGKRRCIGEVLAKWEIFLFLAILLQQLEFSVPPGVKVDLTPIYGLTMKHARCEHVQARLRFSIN
Experimental: In order to investigate the contributions of CYP1A2 and CYP3A4 to the metabolism of the compounds of the present disclosure, human liver microsomes were incubated with the test compounds for 30 minutes in the presence of selective chemical inhibitors furafylline (1A2) and ketoconazole (3A4).

SMILES	half-life at 1 μM [1] [h]	hepatocyte CLint at 1 μM [1] [µL/min/1e6 cells]	CLint ([2]; Rat Hepatocytes, 1 μM test compound) [μL/min/10^6 cells]	EH (hepatic extraction ratio) ([2]; Rat Hepatocytes)	CLint lower than that of ARI-164 (fold) [2]	% Compound Metabolized at 30 min, CYP1A2 Inhibitor [3]	% Inhibition Relative to Negative Control, 1A2 [3]
CC[C@H](N)c1csc(C(=O)c2c[nH]c3cc(F)ccc23)n1 [ARI-186, (S)-(4-(1-aminopropyl)thiazol-2-yl)(6-fluoro-1H-indol-3-yl)methanone]	2.8	4.1	4.127	21.6%	1.8 ×	10%	23%
CCC(=O)c1csc(C(=O)c2c[nH]c3cc(F)ccc23)n1 [ARI-143, 1-(2-(6-fluoro-1H-indole-3-carbonyl)thiazol-4-yl)propan-1-one]				48.0% and 47.8% and 48.5% and 49.7% and 74.6%		32% and 17%	54% and 81%
CC[C@@H](N)c1csc(C(=O)c2c[nH]c3ccc(F)cc23)n1 [ARI-219]	0.5	21.4		58.9%		5%	62%
CC(C)(O)c1csc(C(=O)c2c[nH]c3cc(F)ccc23)n1 [ARI-220, (6-fluoro-1H-indol-3-yl)(4-(2-hydroxypropan-2-yl)thiazol-2-yl)methanone]	2.4	4.77		24.2%		0%	100%
N[C@@H](c1csc(C(=O)c2c[nH]c3ccccc23)n1)C(F)(F)F [ARI-229]	1	11.7		43.9%		0%	None
O=C(c1nc([C@H](O)C(F)(F)F)cs1)c1c[nH]c2cc(F)ccc12 [ARI-212]	3	3.85		20.5%		51%	None
N[C@H](c1csc(C(=O)c2c[nH]c3ccccc23)n1)C(F)(F)F [ARI-228]	0.1	112		88.2%		23%	74%
N[C@@H](c1csc(C(=O)c2c[nH]c3cc(F)ccc23)n1)C(F)(F)F [ARI-224]	1.9	6.12		29.0%	slightly lower	7%	22%
O=C(c1nc(C2(O)CC2)cs1)c1c[nH]c2cc(F)ccc12 [ARI-221, (6-fluoro-1H-indol-3-yl)(4-(1-hydroxycyclopropyl)thiazol-2-yl)methanone]	2.1	5.55		27.1%		28%	71%
O=C(c1nc([C@@H](O)C(F)(F)F)cs1)c1c[nH]c2cc(F)ccc12 [ARI-211]	3.6	3.21		17.7%		67%	None
CC[C@@H](N)c1csc(C(=O)c2c[nH]c3cc(F)ccc23)n1 [ARI-187, (R)-(4-(1-aminopropyl)thiazol-2-yl)(6-fluoro-1H-indol-3-yl)methanone]	2.3	4.93		24.8%		7%	None
CC(C)(N)c1csc(C(=O)c2c[nH]c3cc(F)ccc23)n1 [ARI-226, (4-(2-aminopropan-2-yl)thiazol-2-yl)(6-fluoro-1H-indol-3-yl)methanone]	1.8	6.54		30.4%	slightly lower	16%	None
N[C@H](c1csc(C(=O)c2c[nH]c3cc(F)ccc23)n1)C(F)(F)F [ARI-223]	0.5	25.6		63.1%		12%	85%
NC1(c2csc(C(=O)c3c[nH]c4cc(F)ccc34)n2)CC1 [ARI-225, (4-(1-aminocyclopropyl)thiazol-2-yl)(6-fluoro-1H-indol-3-yl)methanone]	0.5	23.2		60.8%		10%	74%
CC[C@H](O)c1csc(C(=O)c2c[nH]c3cc(F)ccc23)n1 [ARI-164, (S)-(6-Fluoro-1H-indol-3-yl)(4-(1-hydroxypropyl)thiazol-2-yl)methanone]				33.3% and 34.6% and 28.8% and 35.0% and 48.8%		4%	89%
CC[C@H](N)c1csc(C(=O)c2c[nH]c3ccc(F)cc23)n1 [ARI-218]	1	11.1		42.5%		17%	None
